Consider three molecules from PMC5435703 (Scientific Reports, 2017).

As a reminder, the IC50 is the concentration needed to halve the response being measured.

In data set [1] the test system is MRSA, MRSE and VRE. Kind of data set: MIC assays, summary over strains. Type of data set: cell-based. As to conditions: read-out: MIC against all strains tested against.
Data set [2] relates to MRSE 35984. The data set is described as follows: MIC broth microdilution assay. As to conditions: Staphylococcus epidermidis, MRSE. The format is cell-based, Staphylococcus epidermidis.
Data set [3] relates to VRE 700221. The data set is described as follows: MIC broth microdilution assay. The format is cell-based, Enterococcus faecium. As to conditions: Enterococcus, VRE, Table 1; read-out: MIC VRE 700221.
The subject of data set [4] is MRSA-2. The data set is described as follows: MIC broth microdilution assay. Type of data set: cell-based, Staphylococcus aureus. The settings on record: Staphylococcus aureus, MRSA; Table 1; read-out: MIC MRSA-2.
Data set [5] relates to MRSA BAA-1707. The data set is described as follows: MIC broth microdilution assay. The format is cell-based, Staphylococcus aureus. For orientation: Broth dilution looks for growth in wells or tubes with falling amounts of substance.
Data set [6] has as its system MRSA-1. The data set is described as follows: MIC broth microdilution assay. Type of data set: cell-based, Staphylococcus aureus. As to conditions: Staphylococcus aureus, MRSA.
Data set [7] has as its system MRSA BAA-44. The data set is described as follows: MIC broth microdilution assay. The format is cell-based. As to conditions: Staphylococcus aureus.
A short description of data set [8]: Hemolysis assay with red blood cells. As to conditions: human, pH 7.2.
The test system of data set [9] is MRSA-1707 biofilms. The data set is described as follows: Live/Dead staining (fluorescence microscopy) of biofilms. As to conditions: 0.1, 1 and 5 µM, 24 hours.
Description: A mid-log culture of MRSA BAA-1707 was diluted 1:1,000-fold and 500 µL was transferred to each compartment of a 4 compartment CELLview dish (Greiner Bio-One 627871). The dish was then incubated for 24 hours at 37 °C. After this time, the cultures were removed and the plate was washed with 0.9% saline. The dish was then treated with the compounds in fresh media at various concentrations. DMSO was used as our negative control in this assay. The dish was incubated with the compound for 24 hours at 37 °C. After this time, the cultures were removed and the dish was washed with 0.9% saline for 2 minutes. Saline was then removed and 500 µL of the stain (Live/Dead BacLight Viability Kit, Invitrogen) were added for 15 minutes and left in the dark. After this time, the stain was removed and the dish was washed twice with 0.9% saline. Then the dish was fixed with 500 µL 4% paraformaldehyde in PBS for 30 minutes. Images of remaining MRSA biofilms were then taken with a fluorescence microscope. All data were analyzed using ImageJ software from three independent experiments.
E.) Live / Dead staining (Fluorescence Microscopy) of MRSA BAA-1707 Biofilms: […]
the cultures were removed and the dish was washed with 0.9% saline for 2 minutes. […] Images of remaining MRSA biofilms were then taken with a fluorescence microscope. All data were analyzed using Image J software from three
Data set [10] is described as follows: UV-Vis metal(II) binding. The format is physicochemical. The settings on record: UV-Vis kinetics, compared to HP 1. On the procedure: The rates of halogenated phenazine-copper(II) complex formation were independently evaluated via UV-Vis spectrometry following addition of 0.5 equivalents copper(II) sulfate to stirring solutions of HP (10 mM, 4 mL) in dimethyl sulfoxide. Spectral scanning was performed from 200 to 800 nm in 2 nm increments. The disappearance of HPs 1, 17 and 22 was observed over the indicated time points. The halogenated phenazine-copper(II) complex formation yielded a loss in absorbance due to precipitation.

Data set [11] concerns S. epi 12228. Kind of data set: MIC broth microdilution assay. As to conditions: Staphylococcus epidermidis, 12228; Table 1; read-out: MIC S. epi 12228. The format is cell-based, Staphylococcus epidermidis.
In data set [12] the test system is four MRSA isolates. Kind of data set: MIC assays, panel of four MRSA isolates. Type of data set: cell-based. As to conditions: Staphylococcus aureus, range over isolates, read-out: MIC against a panel of four MRSA isolates.
The subject of data set [13] is S. epidermidis. Kind of data set: MIC assays, S. epidermidis strains. The format is cell-based. As to conditions: Staphylococcus epidermidis; range over strains.
Data set [14] is described as follows: LDH release assay for HeLa cytotoxicity. The settings on record: human, HeLa cells; LDH release, 24 hours; tested at 25, 50 and 100 µM; read-out: HeLa Cytotox. IC50. Type of data set: cell-based. (LDH leaks from cells whose membrane has failed.)
For data set [15], the system named is MtB H37Ra. The data set is described as follows: MIC assay for Mycobacterium tuberculosis. The format is cell-based. The settings on record: 168 h, seven days.
The subject of data set [16] is MRSA BAA-1707. The data set is described as follows: MIC assay with metal(II) cation co-treatment. The format is cell-based, Staphylococcus aureus.
The test system of data set [17] is MRSA BAA-1707. The data set is described as follows: Calgary Biofilm Device (CBD) MBC/MBEC assay. Type of data set: cell-based, Staphylococcus aureus. The settings on record: for MBC: Staphylococcus aureus.
In data set [18] the test system is S. aureus. Details: method as in PMID 24389824. As to conditions: initial studies; cited from earlier work.

Values after ≈ are worked out from the molar mass of the structure shown. Where two headings read alike, the source gives them in different places.

As to `Oc1c(Br)cc(Br)c2nc3c(O)c(Br)cc(Br)c3nc12` [HP 15], the MIC in data set [1] is > 50 µM; in [2] (Table 1, read-out: MIC MRSE 35984), > 50 µM; in data set [3], > 50 µM; in [4] it was > 50 µM; in data set [5] (Staphylococcus aureus, Table 1, three independent experiments, read-out: MIC MRSA BAA-1707), > 50 µM; in [5] (Table 1, three independent experiments, read-out: MIC MRSA BAA-1707), >50 µM. Moreover, the MIC was > 50 µM in [6] (Table 1, read-out: MIC MRSA-1) and > 50 µM in data set [6] (single plate shown as picture, read-out: MIC (µM), MIC Assay Against MRSA-1).
As for `Cc1cccc2nc3c(O)c(Br)cc(Br)c3nc12` [HP 17, 6-methyl-2,4-dibromo-1-hydroxyphenazine], the MIC in data set [7] (single plate shown as picture, read-out: MIC (µM), MIC Assay Against MRSA BAA-44) is 0.39 µM (≈ 0.144 µg/mL); in [7] (Table 1, read-out: MIC MRSA BAA-44), 0.39 µM (≈ 0.144 µg/mL); in [11], 0.39 µM (≈ 0.144 µg/mL); in data set [12], 0.05 to 0.59 µM (≈ 0.0184 to 0.217 µg/mL); in [2] (Table 3, read-out: MRSE 35984 MIC), 0.3 µM (≈ 0.11 µg/mL); in data set [13], 0.3 to 0.39 µM (≈ 0.11 to 0.144 µg/mL). In addition, the MIC in data set [4] is 0.3 µM (≈ 0.11 µg/mL); in data set [5] (Staphylococcus aureus, Table 3, read-out: MRSA BAA-1707 MIC) it was 0.3 µM (≈ 0.11 µg/mL); in data set [5] (Staphylococcus aureus, single plate shown as picture, read-out: MIC (µM), MIC Assay against MRSA BAA-1707), 0.2 µM (≈ 0.0736 µg/mL); in data set [15], 25 µM (≈ 9.2 µg/mL); in data set [6] (Table 1, read-out: MIC MRSA-1), ≤ 0.1 µM; in data set [16] (Staphylococcus aureus, Cu(II) co-treatment plate, lanes without metal, read-out: MIC), 0.2 µM. The MIC in data set [16] (Staphylococcus aureus, Fe(II) co-treatment plate, lanes without metal, read-out: MIC) worked out at 0.39 µM; in [16] (Staphylococcus aureus, Mg(II) co-treatment plate, lanes without metal, read-out: MIC), 0.2 µM; in [16] (Staphylococcus aureus, Table 2, MRSA BAA-1707, no metal(II) cation added, read-out: MIC) it was 0.3 µM; in [16] (Staphylococcus aureus, Zn(II) extended plate assay, lanes without metal, read-out: MIC) it was 0.2 µM; in [16] (Staphylococcus aureus, copper(II) at 200 µM co-treatment, read-out: MIC w/Cu2+), 75 µM; in data set [16] (Staphylococcus aureus, extended plate assay, 200 µM Zn(II), read-out: MIC (µM) + Zn(II)), 0.05 µM. Besides, the MIC in data set [16] (Staphylococcus aureus, iron(II) at 200 µM co-treatment, read-out: MIC w/Fe2+) turned out to be 12.5 µM; in [16] (Staphylococcus aureus, magnesium(II) at 200 µM co-treatment, read-out: MIC w/Mg2+), 0.3 µM; in [16] (Staphylococcus aureus, single plate, 200 µM Fe(II), read-out: MIC (µM) + Fe(II)), 12.5 µM; in data set [16] (Staphylococcus aureus, single plate, 200 µM Mg(II), read-out: MIC (µM) + Mg(II)), 0.2 µM; in data set [16] (Staphylococcus aureus, zinc(II) at 200 µM co-treatment, read-out: MIC w/Zn2+), 0.05 µM; in data set [16] (single plate, 200 µM Cu(II), read-out: MIC (µM) + Cu(II)), 50 µM. The molecule further came in with a hemolysis at 1 h, 200 µM in data set [8] of 6.7%. The “Live/Dead staining response of established biofilms” value in [9] is “potent biofilm eradication and clearance response”. In addition, the “rate of copper(II) chelation” value in [10] is reported as “faster rate than HP 1”. Besides, the IC50 at 24 h in data set [14] is > 100 µM. For the same molecule, in data set [17] (CBD, biofilm eradication, 24 hours treatment), the “MRSA BAA-1707 MBEC” value is on record as 6.25/6.25 µM. In addition, in data set [17] (Figure 7A, single CBD plate), the “MRSA-1707 Biofilm Eradication MBEC” value turned out to be 6.25 µM. Besides, the MBC in [17] (24 h, CBD, planktonic killing, 24 hours treatment, read-out: MRSA BAA-1707 MBC) was 6.25 µM (≈ 2.3 µg/mL); in data set [17] (24 h, supplement page 27, first CBD plate, read-out: MRSA Planktonic Killing MBC) it was 6.25 µM (≈ 2.3 µg/mL); in data set [17] (Figure 7A, single CBD plate, read-out: MRSA-1707 Planktonic Eradication MBC), 6.25 µM (≈ 2.3 µg/mL).
For `Oc1c(Br)ccc2nc3ccccc3nc12` [2-bromo-1-hydroxyphenazine, reference compound], the “MIC S. aureus” value in [18] is given as 6.25 µM (≈ 1.72 µg/mL).
